In ChEMBL document CHEMBL3792365, “Dioxol and dihydrodioxin analogs of 2- and 3-phenylacetonitriles as potent anti-cancer agents with nanomolar activity against a variety of human cancer cells” (2016):

What was measured:
Format in all cases: functional
SR = assay: Growth inhibition of human SR cells at 10 uM after 48 hrs by sulforhodamine B assay; conditions: values are per cent of control
SK-MEL-28 = assay: Growth inhibition of human SK-MEL-28 cells at 10 uM after 48 hrs by sulforhodamine B assay; conditions: SK-MEL-28, 48 h, values are per cent of control
NCI-H226 = assay: Growth inhibition of human NCI-H226 cells at 10 uM after 48 hrs by sulforhodamine B assay; conditions: NCI-H226, 48 h, values are per cent of control
[1] = Growth inhibition of human IGROV1 cells at 10 uM after 48 hrs by sulforhodamine B assay; conditions: IGROV-1, 48 h, values are per cent of control
T47D = assay: Growth inhibition of human T47D cells at 10 uM after 48 hrs by sulforhodamine B assay; conditions: values are per cent of control
U-251 = assay: Growth inhibition of human U251 cells at 10 uM after 48 hrs by sulforhodamine B assay; conditions: U-251, 48 h, values are per cent of control
[2] = Growth inhibition of human SKOV3 cells at 10 uM after 48 hrs by sulforhodamine B assay; conditions: SK-OV-3, 48 h, values are per cent of control
[3] = Growth inhibition of human SW620 cells at 10 uM after 48 hrs by sulforhodamine B assay; conditions: SW-620, 48 h, values are per cent of control
MDA-MB-468 = assay: Growth inhibition of human MDA-MB-468 cells at 10 uM after 48 hrs by sulforhodamine B assay; conditions: MDA-MB-468, 48 h, values are per cent of control
NCI-H460 = assay: Growth inhibition of human NCI-H460 cells at 10 uM after 48 hrs by sulforhodamine B assay; conditions: NCI-H460, 48 h, values are per cent of control
[4] = Growth inhibition of human COLO205 cells at 10 uM after 48 hrs by sulforhodamine B assay; conditions: COLO 205, 48 h, values are per cent of control
NCI-H522 = assay: Growth inhibition of human NCI-H522 cells at 10 uM after 48 hrs by sulforhodamine B assay; conditions: NCI-H522, 48 h, values are per cent of control
[5] = Growth inhibition of human HOP62 cells at 10 uM after 48 hrs by sulforhodamine B assay; conditions: HOP-62, 48 h, values are per cent of control
[6] = Growth inhibition of human SF268 cells at 10 uM after 48 hrs by sulforhodamine B assay; conditions: SF-268, 48 h, values are per cent of control
ACHN = assay: Growth inhibition of human ACHN cells at 10 uM after 48 hrs by sulforhodamine B assay; conditions: values are per cent of control
[7] = Growth inhibition of human SNB19 cells at 10 uM after 48 hrs by sulforhodamine B assay; conditions: SNB-19, 48 h, values are per cent of control
[8] = Growth inhibition of human HCC2998 cells at 10 uM after 48 hrs by sulforhodamine B assay; conditions: HCC 2998, 48 h, values are per cent of control
786-0 = assay: Growth inhibition of human 786-0 cells at 10 uM after 48 hrs by sulforhodamine B assay; conditions: 786-0, 48 h, values are per cent of control
[9] = Growth inhibition of human NCI-ADR-RES cells at 10 uM after 48 hrs by sulforhodamine B assay; conditions: values are per cent of control
[10] = Growth inhibition of human TK10 cells at 10 uM after 48 hrs by sulforhodamine B assay; conditions: TK-10, 48 h, values are per cent of control
[11] = Growth inhibition of human DU145 cells at 10 uM after 48 hrs by sulforhodamine B assay; conditions: DU-145, 48 h, values are per cent of control
[12] = Growth inhibition of human UACC62 cells at 10 uM after 48 hrs by sulforhodamine B assay; conditions: UACC-62, 48 h, values are per cent of control
[13] = Growth inhibition of human SF295 cells at 10 uM after 48 hrs by sulforhodamine B assay; conditions: SF-295, 48 h, values are per cent of control
[14] = Growth inhibition of human HCT15 cells at 10 uM after 48 hrs by sulforhodamine B assay; conditions: HCT-15, 48 h, values are per cent of control
[15] = Growth inhibition of human SF539 cells at 10 uM after 48 hrs by sulforhodamine B assay; conditions: SF-539, 48 h, values are per cent of control
[16] = Growth inhibition of human Caki1 cells at 10 uM after 48 hrs by sulforhodamine B assay; conditions: CAKI-1, 48 h, values are per cent of control
NCI-H23 = assay: Growth inhibition of human NCI-H23 cells at 10 uM after 48 hrs by sulforhodamine B assay; conditions: NCI-H23, 48 h, values are per cent of control
[17] = Growth inhibition of human Hs 578T cells at 10 uM after 48 hrs by sulforhodamine B assay; conditions: values are per cent of control
A498 = assay: Growth inhibition of human A498 cells at 10 uM after 48 hrs by sulforhodamine B assay; conditions: A498, 48 h, values are per cent of control
[18] = Growth inhibition of human OVCAR5 cells at 10 uM after 48 hrs by sulforhodamine B assay; conditions: OVCAR-5, 48 h, values are per cent of control
SK-MEL-2 = assay: Growth inhibition of human SK-MEL-2 cells at 10 uM after 48 hrs by sulforhodamine B assay; conditions: SK-MEL-2, 48 h, values are per cent of control
MDA-MB-435 = assay: Growth inhibition of human MDA-MB-435 cells at 10 uM after 48 hrs by sulforhodamine B assay; conditions: MDA-MB-435, 48 h, values are per cent of control
SN12C = assay: Growth inhibition of human SN12C cells at 10 uM after 48 hrs by sulforhodamine B assay; conditions: values are per cent of control
[19] = Growth inhibition of human SNB75 cells at 10 uM after 48 hrs by sulforhodamine B assay; conditions: SNB-75, 48 h, values are per cent of control
[20] = Growth inhibition of human RXF393 cells at 10 uM after 48 hrs by sulforhodamine B assay; conditions: RXF 393, 48 h, values are per cent of control
K562 = assay: Growth inhibition of human K562 cells at 10 uM after 48 hrs by sulforhodamine B assay; conditions: K562, 48 h, values are per cent of control
[21] = Growth inhibition of human OVCAR4 cells at 10 uM after 48 hrs by sulforhodamine B assay; conditions: OVCAR-4, 48 h, values are per cent of control
M14 = assay: Growth inhibition of human M14 cells at 10 uM after 48 hrs by sulforhodamine B assay; conditions: M14, 48 h, values are per cent of control
[22] = Growth inhibition of human HCT116 cells at 10 uM after 48 hrs by sulforhodamine B assay; conditions: HCT-116, 48 h, values are per cent of control
NCI-H322M = assay: Growth inhibition of human NCI-H322M cells at 10 uM after 48 hrs by sulforhodamine B assay; conditions: values are per cent of control

Compound	growth, % of control at 10 µM (SR)	growth, % of control at 10 µM (SK-MEL-28)	growth, % of control at 10 µM (NCI-H226)	growth, % of control at 10 µM [1]	growth, % of control at 10 µM (T47D)	growth, % of control at 10 µM (U-251)	growth, % of control at 10 µM [2]	growth, % of control at 10 µM [3]	growth, % of control at 10 µM (MDA-MB-468)	growth, % of control at 10 µM (NCI-H460)	growth, % of control at 10 µM [4]	growth, % of control at 10 µM (NCI-H522)	growth, % of control at 10 µM [5]	growth, % of control at 10 µM [6]	growth, % of control at 10 µM (ACHN)	growth, % of control at 10 µM [7]	growth, % of control at 10 µM [8]	growth, % of control at 10 µM (786-0)	growth, % of control at 10 µM [9]	growth, % of control at 10 µM [10]	also measured
N#C/C(=C\c1cccnc1Cl)c1ccc2c(c1)OCO2	92.8%	113%	98.9%	113%	93.4%	95.8%	103%	94.8%	93.7%	102%	112%	71.7%	103%	109%	109%	101%	107%	94%	101%	106%	growth, % of control at 10 µM [11]: 115%; growth, % of control at 10 µM [12]: 85.7%; growth, % of control at 10 µM [13]: 110%; growth, % of control at 10 µM [14]: 98.8%; growth, % of control at 10 µM [15]: 99.8%; growth, % of control at 10 µM [16]: 103%; growth, % of control at 10 µM (NCI-H23): 97.2%; growth, % of control at 10 µM [17]: 129%; growth, % of control at 10 µM (A498): 90.7%; growth, % of control at 10 µM [18]: 106%; growth, % of control at 10 µM (SK-MEL-2): 98.9%; growth, % of control at 10 µM (MDA-MB-435): 97.1%; growth, % of control at 10 µM (SN12C): 91.7%; growth, % of control at 10 µM [19]: 102%; growth, % of control at 10 µM [20]: 98.3%; growth, % of control at 10 µM (K562): 113%; growth, % of control at 10 µM [21]: 100%; growth, % of control at 10 µM (M14): 94.9%; growth, % of control at 10 µM [22]: 94%; growth, % of control at 10 µM (NCI-H322M): 97%
N#C/C(=C\c1cc2ccccc2s1)c1ccc2c(c1)OCO2	13.5%	60.6%	28.7%	34.3%	70.4%	18.4%	20.7%	21%	14.1%	9.7%	-33.9%	-20.5%	58.5%	23.8%	38.8%	46.4%	6.4%	44.7%	-1.9%	42.7%	growth, % of control at 10 µM [11]: 5.1%; growth, % of control at 10 µM [12]: 24%; growth, % of control at 10 µM [13]: 2.9%; growth, % of control at 10 µM [14]: 20.4%; growth, % of control at 10 µM [15]: -10.1%; growth, % of control at 10 µM [16]: 41.2%; growth, % of control at 10 µM (NCI-H23): 31.1%; growth, % of control at 10 µM [17]: -5.4%; growth, % of control at 10 µM (A498): -7.5%; growth, % of control at 10 µM [18]: 50.4%; growth, % of control at 10 µM (SK-MEL-2): 29.2%; growth, % of control at 10 µM (MDA-MB-435): -37.2%; growth, % of control at 10 µM (SN12C): 25.3%; growth, % of control at 10 µM [19]: 0.5%; growth, % of control at 10 µM [20]: -2.6%; growth, % of control at 10 µM (K562): 18.8%; growth, % of control at 10 µM [21]: 60.2%; growth, % of control at 10 µM (M14): 20.6%; growth, % of control at 10 µM [22]: 11.6%; growth, % of control at 10 µM (NCI-H322M): 40.9%
